Experimental data from US20170065564A1, “BIS-CYCLIC GUANIDINE COMPOUND COMPOSITIONS, METHODS OF USE AND TREATMENT THEREOF” (University of South Florida, priority 2014, published 2017).

What was measured:
[1] = system: P. aeruginosa; test: MIC reanalysis in the presence of the efflux inhibitor reserpine; assay type: cell-based, Pseudomonas aeruginosa
Description: (§1) Given the minor variations observed in MIC for three of the Gram-negative organisms, and that these particular bacteria are renowned for efflux detoxification of antibacterial agents, we hypothesized that the differences observed likely relate to variation in efflux pump activity between strains. […] The effects observed appear to be universal, regardless of strain or compound tested. […] It should be noted that the data presented herein represents a worst-case scenario. […] Similar data was returned for all front runner agents, against all 10 isolates of the three Gram-negative organisms (data not shown). These findings support the hypothesis that inherent efflux mechanisms of certain Gram-negative organisms result in MIC variations for the lead bis-cyclic guanidines between clinical isolates.

[2] = system: E. cloacae; assay type: cell-based, Enterobacter cloacae; settings: 8 passages, concentration doubled each day
Protocol: (§2) ESKAPE pathogens were grown overnight in liquid media at 37° C. These cultures were then diluted 1:100 in fresh media, and seeded into a 96-well plate. Lead bis-cyclic guanidines or control agents were added to respective wells at half MIC concentrations. […] These were then grown overnight, and the procedure repeated for a total of eight days.

[3] = system: E. cloacae; test: MIC reanalysis in the presence of the efflux inhibitor reserpine; assay type: cell-based, Enterobacter cloacae; settings: E. cloacae strain 1446; with 100 μM of reserpine
Description: as §1

[4] = system: P. aeruginosa; assay type: cell-based, Pseudomonas aeruginosa; settings: 8 passages, concentration doubled each day
Protocol: as §2

[5] = system: K. pneumoniae; test: MIC reanalysis in the presence of the efflux inhibitor reserpine; assay type: cell-based, Klebsiella pneumoniae; settings: K. pneumoniae strain 1441; with 100 μM of reserpine
Description: as §1

SMILES	increase in MIC after serial passage [2] [fold]	increase in MIC after serial passage [4] [fold]	further results
CCCCCCCN1C(=N)N(CCCC[C@H]2CNC(=N)N2CCc2cccc(C(F)(F)F)c2)C[C@@H]1CCCC [Compound 1]			effect on growth, combined with reserpine ([1]; P. aeruginosa isolate 1420, 2 μM compound plus 100 μM reserpine): strongly inhibited growth; effect on growth, agent alone ([1]; P. aeruginosa isolate 1420, 100 μM of reserpine or 2 μM of compound 1 individually): no effect
CCCC[C@H]1CN(CCCC[C@H]2CNC(=N)N2CCc2cccc(C(F)(F)F)c2)C(=N)N1CCCCC1CCCCC1 [Compound 2, (S)-4-butyl-3-(4-cyclohexylbutyl)-1-(4-((S)-2-imino-3-(3-(trifluoromethyl)phenethyl)imidazolidin-4-yl)butyl)imidazolidin-2-imine]	8		
CCCCCCCN1C(=N)N(CCCC[C@H]2CNC(=N)N2CCc2cccc(C(F)(F)F)c2)C[C@@H]1CC1CCCCC1 [Compound 7]	8		effect on growth, in combination with reserpine [3]: complete inhibition of growth
CCCCCCCN1C(=N)N(CCCC[C@H]2CNC(=N)N2CCCCC2CCCCC2)C[C@@H]1CC1CCCCC1 [Compound 16]	8	8	effect on growth, in combination with reserpine [5]: complete inhibition of growth
CCCCCCCN1C(=N)N(CCCC[C@H]2CNC(=N)N2CCC23CC4CC(CC(C4)C2)C3)C[C@@H]1CCCC [Compound 19]	8	8	effect on growth, paired with reserpine ([1]; P. aeruginosa strain 1414, with reserpine): complete inhibition of growth
